In patent publication US20180207264A1, “PORCINE IMMUNE MODULATION MODEL” (Government of the United States as Represented by the …, priority 2017, published 2018):

Assays:
[1] = test system: MDA-MB-231 breast cancer cell; assay: Cell death in hormone independent ER/PR negative breast cancer cell cultures; type: cell-based; settings: 25 μM β-AED, 25 μM β-AET, 5 nM E2; PEG 300 with LIPOFECTAMINE vehicle
Protocol: (§1) Hormone dependent, noninvasive, epithelial phenotype (ER/PR positive MCF-7 breast cancer cells) and hormone independent, invasive, mesenchymal phenotype (ER/PR negative MDA-MB-231 breast cancer cell) cell suspensions were acquired and prepared in complete medium (DMEM/F12, 10% FBS, 1% penicillin/streptomycin (Gibco)). Cellular concentration was adjusted to 2×10^5 cells/mL.
(§2) Androstene hormone solutions according to embodiments of the present invention were prepared from a first solution and a second solution. For the first solution, 3.0 mg of β-AED or 3-AET was added to warm PEG 300 to prepare 50 mM stock. For the second solution, 10 μL of LIPOFECTAMINE (3:1 DOSPA:DOPE) was introduced to 100 μL of PEG 300, mixed, and incubated in a water bath at 42° C. for 30 min. The first and second solutions were then mixed in a sonicator water bath at 42° C. for 1 hr. The final concentration was 50 mM β-AED (or AET, as used).
(§3) A β-estradiol solution was also prepared by adding 2.7 mg of β-estradiol to 200 μL warmed PEG 300 with LIPOFECTAMINE and then further diluted 1:1000 with PEG-300. The final concentration was 50 μM.
A diluted β-AED (or 3-AET) solution was prepared with complete medium at a final concentration of 50 μM (1:1000 dilute of 50 mM). Likewise, a diluted β-E2 solution was prepared with complete medium at a final concentration of 10 nM (1:5000 dilute of 50 μM). […]

[2] = test system: MCF-7 breast cancer cells; assay: Cell death and cell growth in hormone dependent ER/PR positive breast cancer cell cultures; type: cell-based; settings: 5 nM E2; for MCF7 Cell Death Amount: 25 μM β-AED, 25 μM β-AET, PEG 300 with LIPOFECTAMINE vehicle
Protocol: as §1, §2, §3
A diluted β-AED (or 3-AET) solution was prepared with complete medium at a final concentration of 50 μM (1:1000 dilute of 50 mM). Likewise, a diluted β-E2 solution was prepared with complete medium at a final concentration of 10 nM (1:5000 dilute of 50 μM).
Using a 24-well plate, mixtures of 0.5 mL of cells per well with 0.5 mL of medium diluted hormone vehicle. Cell cultures were maintained at 90% humidity, 7% CO2, and 37° C.

293T cells = assay: Biological function (phenotype, mobile cells) of androstene hormone treatments in 293T cells; type: cell-based, human; settings: androstene hormone 25 μM
Protocol: A non-toxic vehicle for administration of androstene hormones according to embodiments of the present invention was prepared from a first solution and a second solution. The first solution, comprising liposomal formulation, was placed in PEG 300 to a concentration of 5% and heated in a sonicating water bath to about 45° C. The second solution, comprising a selected hormone (one or more of 5Δ-androsten-3β, 17α-diol, 5Δ-androsten-3β, 17β-diol, or 5Δ-androsten-3β,7β,17β-triol), was placed in PEG 300 and heated in a sonicating water bath to about 45° C. The first and second solutions were then combine and stirred until dissolved.
Biological function was tested in 293T cells, which is a human embryonic cell line transformed with Large T antigen […] SV40. This hypotriploid (polyploid) cell line is particularly useful in such transformation studies and has very distinct phenotypes when grown. All androstene hormone treatment applications were at concentrations of 25 μM.

[3] = grown for 5 days, 25 μM androstene hormone, PEG 300 with 5% LIPOFECTAMINE

Compound	MDA-MB-231 Cell Death Amount [1]	MCF7 Cell Death Amount [2]	Phenotype of 293T cells (cell islands, mobile cells, cell processes) (293T cells; vehicle PEG 300)	Phenotype of 293T cells (cell islands, mobile cells, cell processes) (293T cells; vehicle PEG 300 and LIPOFECTAMINE)	Cell growth / cell density of MCF-7 cells compared with vehicle (FIG. 14) [2, 3]	Particles / cell bodies produced by MCF-7 cells in response to treatment [2, 3]
C[C@]12CC[C@H]3[C@@H]([C@@H](O)C=C4C[C@@H](O)CC[C@@]43C)[C@@H]1CC[C@@H]2O [β-AET, 5-androstene-3β,7β, 17β-triol]	Not observed	Not observed	–	–	–	–
C[C@]12CC[C@H]3[C@@H](CC=C4C[C@@H](O)CC[C@@]43C)[C@@H]1CC[C@@H]2O [β-AED, androst-5-ene-3β, 17β-diol]	Not observed	Not observed	cell islands are larger and there is a significant reduction in mobile cells	drastic decrease in, or morphological change, in mobile elements	not as heath and there are areas of decreased density	small particles
